Results reported in patent publication US12421280B2, “Insulin like growth factor binding protein bioactive peptide fragments” (Northwestern University, priority 2019, dated 2025).
“And” between values parts separate entries of the source, which are not always exact repeats. Equal entries are not always repeated.

Key:
Assay type in all cases: in vivo, rat
[1] = test system: male SD rats; assay: Porsolt forced swim test; conditions: 1 hr post-dosing; for antidepressant-like effect in the Porsolt test as measured by floating time, compared with ketamine: 1 μg/kg i.v., FIG. 1A; for antidepressant-like effect in the Porsolt test (floating time), compared with IGFBP2: dose not specified, FIG. 2 legend; for antidepressant-like effect in the Porsolt test as measured by floating time, compared with IGFBP2: FIG. 2
Description: Adult male (2-3 month old) Sprague-Dawley (SD) rats were purchased from Harlan (USA) for the Porsolt Forced Swim Test. Rats were housed in Lucite cages with aspen wood chip bedding, maintained on a 12:12 light:dark cycle (lights on at 5 AM), and given ad libitum access to Purina lab chow (USA) and tap water throughout the study. All experiments were approved by the Sai Life Sciences (India) Animal Care and Use Committees.
Porsolt forced swim testing was conducted as described in (Burgdorf et al., Neuropsychopharmacology, (2013), 38(5):729-742). Rats were dosed with IGFBP1-7 (1 microgram/kg i.v.; peprotech, USA) (3 mg/kg, i.v.), ketamine ([…] i.v.; Sigma, USA) or 0.9% sterile saline vehicle (1 ml/kg, i.v.). Injections were made in the lateral tail vein and rats were tested 1 hr post-dosing. Animals were placed in a 46 cm tall×20 cm in diameter clear glass tube filled to 30 cm with tap water (23±1° C.) for 15 min on the first day (habituation) and 5 min on the subsequent test day. Water was changed after every other animal. Animals were videotaped, and tapes were scored offline by a blind experimenter with high inter-rater reliability (Pearson's r>0.9). Floating time (sec) was defined as the minimal amount of effort required to keep the animal's head above and diving (number of incidences) was registered when the whole body of the animal was submersed and the animal's head was facing towards the bottom of the tank.
Based on the results of the Porsolt test in Example 1, IGFBP2, IGFBP3, and IGFBP5 were identified as the best binding proteins for inducing robust antidepressant-like effects without side effects. Given the structural similarities between all 7 IGFBPs, an amino acid sequence homology was performed to identify sequences that were homologues between IGFBP2, IGFBP3, and IGFBP5 and were not consistently shared with IGFBP1, IGFBP6 and IGFBP7. Based on this analysis, three peptides were identified (KHGLYNLKQCKMSLNGQ (SEQ ID NO: 1); PKKLRP (SEQ ID NO: 2); RGD). These peptides were synthesized using standard solid phase peptide chemistry and were assessed in the Porsolt Test as described above.

[2] = test system: rats; assay: Positive emotional learning: hedonic 50-kHz ultrasonic vocalizations during heterospecific play, with center crosses in the same assay; conditions: 0.01, 0.1, 1, 10, and 30 mg/kg vs. vehicle, P<0.05
Description: (§1) These experiments were conducted as described in Burgdorf et al. (Int. J. Neuropsychopharmacol., 2017, 20:476-484).

[3] = test system: rats; assay: Contextual fear extinction (model of PTSD); conditions: 1 mg/kg IV one hour before the first extinction session
Description: as §1

[4] = Table 1 raw data, one value per rat, ketamine 10 mg/kg i.v., 5 min test session

CNC1(c2ccccc2Cl)CCCCC1=O (stereo not drawn) [ket, ketamine, reference compound]
diving (number of incidences) [1, 4]: 0 (6×) and 1 | floating (floating time) [1, 4]: 30.5 s and 55 s and 79.5 s and 31.2 s and 59.3 s and 78.1 s and 39.6 s

IGFBP3: insulin-like growth factor binding protein 3 (peprotech, USA)
antidepressant-like effect in the Porsolt test as measured by floating time, compared with ketamine ([1]; ketamine 10 mg/kg i.v.): equivalent antidepressant-like effect as ketamine | floating (floating time) ([1]; Table 1 raw data, one value per rat, IGFBP 1 μg/kg i.v., 5 min test session, listed as BP3): 29.3 s and 35.8 s and 42.8 s and 23.3 s and 84.9 s and 140.5 s and 142.3 s

IGFBP5: insulin-like growth factor binding protein 5 (peprotech, USA)
antidepressant-like effect in the Porsolt test as measured by floating time, compared with ketamine ([1]; ketamine 10 mg/kg i.v.): equivalent antidepressant-like effect as ketamine | floating (floating time) ([1]; Table 1 raw data, one value per rat, IGFBP 1 μg/kg i.v., 5 min test session, listed as BP5): 14.4 sec and 104.6 sec and 55 sec and 8.4 sec and 27.7 sec (2×) and 25.7 sec

IGFBP7: insulin-like growth factor binding protein 7 (peprotech, USA)
antidepressant-like effect in the Porsolt test as measured by floating time, compared with ketamine ([1]; ketamine 10 mg/kg i.v.): equivalent antidepressant-like effect | floating (floating time) ([1]; Table 1 raw data, one value per rat, IGFBP 1 μg/kg i.v., 5 min test session, listed as BP7): 24.5 s and 123.8 s and 52.5 s and 94.4 s and 9.8 s and 30.8 s and 60.1 s

KHGLYNLKQCKMSLNGQ [made by solid phase peptide chemistry]
antidepressant-like effect in the Porsolt test (floating time), compared with IGFBP2 [1]: equivalent antidepressant-like effect as IGFBP2 | floating (floating time) ([1]; Table 2 raw data, one value per rat, dose 54 (low dose, unit not given), listed as KH . . .): 29.2 s and 26.5 s and 25.2 s and 24.2 s and 43.3 s and 33.4 s and 53.8 s and 27.4 s | floating (floating time) ([1]; Table 2 raw data, one value per rat, dose 540 (high dose, unit not given), listed as KH . . .): 108.7 s and 94.8 s and 121.4 s and 149.1 s and 101.5 s and 105.8 s and 130 s and 147.9 s | antidepressant-like effect in the Porsolt test as measured by floating time, compared with IGFBP2 ([1]; low dose): equivalent or superior antidepressant-like effect

PKKLRP [made by solid phase peptide chemistry]
antidepressant-like effect in the Porsolt test (floating time), compared with IGFBP2 [1]: equivalent antidepressant-like effect as IGFBP2 | floating (floating time) ([1]; Table 2 raw data, one value per rat, dose 20 (low dose, unit not given), listed as PK . . .): 16.6 s and 6.6 s and 10.2 s and 26.2 s and 18.2 s and 15.5 s and 22.4 s and 7.6 s | floating (floating time) ([1]; Table 2 raw data, one value per rat, dose 200 (high dose, unit not given), listed as PK . . .): 17.3 s and 4.3 s and 47.8 s and 9 s and 18.4 s and 45.6 s and 2.3 s and 7.7 s | antidepressant-like effect in the Porsolt test as measured by floating time, compared with IGFBP2 ([1]; high dose): equivalent or superior antidepressant-like effect | antidepressant-like effect in the Porsolt test as measured by floating time, compared with IGFBP2 ([1]; low dose): equivalent or superior antidepressant-like effect | center crosses (index of an anxiolytic drug effect) ([2]; FIG. 3B): increased | positive emotional learning (rates of hedonic ultrasonic vocalizations during heterospecific play) ([2]; 1 hr post dosing, FIG. 3A): increased positive emotional learning | spontaneous recovery (difference in freezing 14 days post dosing versus extinction session 6) ([3]; FIG. 3D): increased | contextual fear extinction across each test day ([3]; sessions 1-6 drug vs. vehicle, P<0.05, FIG. 3C): increased contextual fear extinction

RGD
floating (floating time) ([1]; Table 2 raw data, one value per rat, dose 9 (unit not given)): 115.4 s and 132.9 s and 113.1 s and 125.8 s and 108.2 s and 140.6 s and 139.7 s and 127.8 s | floating (floating time) ([1]; Table 2 raw data, one value per rat, dose 90 (unit not given)): 137 s and 169 s and 132.7 s and 133.6 s and 81.6 s and 143.4 s and 149.6 s and 123.7 s

B1: IGFBP1: insulin-like growth factor binding protein 1 (peprotech, USA) (protein, UniProt P08833 26-259, looked up)
Insulin-like growth …: APWQCAPCSAEKLALCPPVSASCSEVTRSAGCGCCPMCALPLGAACGVATARCARGLSCRALPGEQQPLHALTRGQGACVQESDASAPHAAEAGSPESPESTEITEEELLDNFHLMAPSEEDHSILWDAISTYDGSKALHVTNIKKWKEPCRIELYRVVESLAKAQETSGEEISKFYLPNCNKNGFYHSRQCETSMDGEAGLCWCVYPWNGKRIPGSPEIRGDPNCQIYFNVQN
floating (floating time) ([1]; Table 1 raw data, one value per rat, IGFBP 1 μg/kg i.v., 5 min test session, listed as BP1): 156.8 s and 143.4 s and 67.5 s and 179.1 s and 130.7 s and 96.8 s and 187.9 s

B2: IGFBP4: insulin-like growth factor binding protein 4 (peprotech, USA) (protein, UniProt P22692 22-258, looked up)
Insulin-like growth …: DEAIHCPPCSEEKLARCRPPVGCEELVREPGCGCCATCALGLGMPCGVYTPRCGSGLRCYPPRGVEKPLHTLMHGQGVCMELAEIEAIQESLQPSDKDEGDHPNNSFSPCSAHDRRCLQKHFAKIRDRSTSGGKMKVNGAPREDARPVPQGSCQSELHRALERLAASQSRTHEDLYIIPIPNCDRNGNFHPKQCHPALDGQRGKCWCVDRKTGVKLPGGLEPKGELDCHQLADSFRE
floating (floating time) ([1]; Table 1 raw data, one value per rat, IGFBP 1 μg/kg i.v., 5 min test session, listed as BP4): 32.4 s and 137.2 s and 175.7 s and 189.5 s and 59 s and 64.7 s and 172.9 s

B3: IGFBP6: insulin-like growth factor binding protein 6 (peprotech, USA) (protein, UniProt P24592 28-240, looked up)
Insulin-like growth …: RCPGCGQGVQAGCPGGCVEEEDGGSPAEGCAEAEGCLRREGQECGVYTPNCAPGLQCHPPKDDEAPLRALLLGRGRCLPARAPAVAEENPKESKPQAGTARPQDVNRRDQQRNPGTSTTPSQPNSAGVQDTEMGPCRRHLDSVLQQLQTEVYRGAQTLYVPNCDHRGFYRKRQCRSSQGQRRGPCWCVDRMGKSLPGSPDGNGSSSCPTGSSG
antidepressant-like effect in the Porsolt test as measured by floating time, compared with ketamine ([1]; ketamine 10 mg/kg i.v.): equivalent antidepressant-like effect | floating (floating time) ([1]; Table 1 raw data, one value per rat, IGFBP 1 μg/kg i.v., 5 min test session, listed as BP6): 25.6 s and 36.6 s and 10.9 s and 45 s and 27.2 s and 35.5 s and 36.3 s

B4: IGFBP2: insulin-like growth factor binding protein 2 (peprotech, USA); positive control in Example 2 (protein, UniProt P18065 36-325, looked up)
Insulin-like growth …: AEVLFRCPPCTPERLAACGPPPVAPPAAVAAVAGGARMPCAELVREPGCGCCSVCARLEGEACGVYTPRCGQGLRCYPHPGSELPLQALVMGEGTCEKRRDAEYGASPEQVADNGDDHSEGGLVENHVDSTMNMLGGGGSAGRKPLKSGMKELAVFREKVTEQHRQMGKGGKHHLGLEEPKKLRPPPARTPCQQELDQVLERISTMRLPDERGPLEHLYSLHIPNCDKHGLYNLKQCKMSLNGQRGECWCVNPNTGKLIQGAPTIRGDPECHLFYNEQQEARGVHTQRMQ
antidepressant-like effect in the Porsolt test as measured by floating time, compared with ketamine ([1]; ketamine 10 mg/kg i.v.): equivalent antidepressant-like effect as ketamine | floating (floating time) ([1]; Table 1 raw data, one value per rat, IGFBP 1 μg/kg i.v., 5 min test session, listed as BP2): 59.8 s and 45.5 s and 41.6 s and 43.5 s and 25.7 s and 68.2 s and 83.6 s | floating (floating time) ([1]; Table 2 raw data, one value per rat, positive control IGFBP2, dose not given, listed as BP2): 37.2 s and 67.1 s and 22 s and 35.6 s and 28.2 s and 65.8 s and 44.3 s and 79.1 s
